ChEMBL document CHEMBL4428052, “Substrate-Guided Design of Selective FXIIa Inhibitors Based on the Plant-Derived Momordica cochinchinensis Trypsin Inhibitor-II (MCoTI-II) Scaffold” (J Med Chem, 2016)
Peptide text beside a SMILES is read from it.

How the values were obtained:
Coagulation factor X = Coagulation factor X (Homo sapiens, UniProt P00742); experiment: Inhibition of factor 10a (unknown origin) using Ac-QRSRpNA as substrate incubated for 30 mins measured for 7 mins by morrison plot analysis
Sequence of Coagulation factor X (P00742 41-179 limits assumed): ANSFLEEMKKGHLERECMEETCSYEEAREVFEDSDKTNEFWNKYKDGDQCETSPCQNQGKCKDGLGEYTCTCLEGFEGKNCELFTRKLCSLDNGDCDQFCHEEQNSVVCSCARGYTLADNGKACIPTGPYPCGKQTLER
Sequence of Coagulation factor X (P00742 235-488 limits assumed): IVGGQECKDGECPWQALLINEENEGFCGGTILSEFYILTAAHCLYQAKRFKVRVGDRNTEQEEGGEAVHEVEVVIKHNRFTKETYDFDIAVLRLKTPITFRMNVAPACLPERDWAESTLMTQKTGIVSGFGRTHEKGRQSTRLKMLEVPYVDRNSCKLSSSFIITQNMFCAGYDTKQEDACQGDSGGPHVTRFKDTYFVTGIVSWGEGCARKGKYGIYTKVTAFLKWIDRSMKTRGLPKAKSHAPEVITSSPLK

Homo sapiens [1] = species: Homo sapiens; experiment: Selectivity ratio of Ki for human plasma kallikrein to Ki for factor 12a (unknown origin)
Prothrombin = Prothrombin (Homo sapiens, UniProt P00734); experiment: Inhibition of thrombin (unknown origin) using Ac-ATPRpNA as substrate incubated for 30 mins measured for 7 mins by morrison plot analysis
[2] = target: Urokinase-type plasminogen activator (Homo sapiens, UniProt P00749); experiment: Inhibition of uPA (unknown origin) incubated for 30 mins measured for 7 mins by morrison plot analysis
Homo sapiens [3] = species: Homo sapiens; experiment: Selectivity ratio of Ki for factor 10a (unknown origin) to Ki for factor 12a (unknown origin)
Homo sapiens [4] = species: Homo sapiens; experiment: Selectivity ratio of Ki for factor 12a (unknown origin) to Ki for factor 10a (unknown origin)
Coagulation factor XII = target: T1, Coagulation factor XII (Homo sapiens, UniProt P00748); experiment: Inhibition of factor 12a (unknown origin) using Ac-QRFRpNA as substrate incubated for 30 mins measured for 7 mins by morrison plot analysis
T1 sequence (P00748 whole entry): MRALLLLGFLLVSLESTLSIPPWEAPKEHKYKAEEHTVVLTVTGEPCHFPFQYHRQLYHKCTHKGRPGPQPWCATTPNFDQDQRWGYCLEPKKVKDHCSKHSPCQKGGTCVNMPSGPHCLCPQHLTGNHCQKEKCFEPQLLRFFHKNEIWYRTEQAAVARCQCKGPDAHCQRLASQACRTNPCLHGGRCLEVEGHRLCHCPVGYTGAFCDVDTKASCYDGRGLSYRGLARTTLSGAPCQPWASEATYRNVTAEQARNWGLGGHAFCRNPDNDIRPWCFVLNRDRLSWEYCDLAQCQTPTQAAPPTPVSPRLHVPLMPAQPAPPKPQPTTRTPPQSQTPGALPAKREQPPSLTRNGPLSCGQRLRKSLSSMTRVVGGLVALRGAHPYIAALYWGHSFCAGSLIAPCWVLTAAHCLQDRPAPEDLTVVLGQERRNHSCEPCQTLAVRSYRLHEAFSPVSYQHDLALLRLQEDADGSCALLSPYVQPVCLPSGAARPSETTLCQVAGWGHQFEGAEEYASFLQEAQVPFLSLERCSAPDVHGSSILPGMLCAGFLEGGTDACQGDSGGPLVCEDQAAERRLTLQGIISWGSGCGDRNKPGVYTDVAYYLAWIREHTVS

Compound | Ki (Coagulation factor X) [nM] | Ratio Ki (Homo sapiens [1]) | Ki (Prothrombin) [nM] | Ki [2] [nM] | Ratio Ki (Homo sapiens [3]) | Ratio Ki (Homo sapiens [4]) | Ki (Coagulation factor XII) [nM]
CC[C@H](C)[C@@H]1NC(=O)[C@H](CCCNC(=N)N)NC(=O)[C@H](Cc2ccccc2)NC(=O)[C@H](NC(=O)[C@H](CCC(N)=O)NC(=O)CNC(=O)[C@@H](N)CCCCN)CSSC[C@H]2NC(=O)[C@H](C)NC(=O)CNC(=O)[C@@H]3CCCN3C(=O)[C@@H]3CSSC[C@H](C(=O)NCC(=O)N[C@@H](CO)C(=O)NCC(=O)N[C@@H](CO)C(=O)N[C@@H](CC(=O)O)C(=O)O)NC(=O)[C@H](Cc4ccc(O)cc4)NC(=O)CNC(=O)[C@H](CC(N)=O)NC(=O)CNC(=O)[C@H](CCCNC(=N)N)NC(=O)[C@H](CSSC[C@H](NC(=O)[C@H](CCCCN)NC(=O)[C@H](CCCCN)NC(=O)[C@H](Cc4c[nH]c5ccccc45)NC1=O)C(=O)N[C@@H](CCCNC(=N)N)C(=O)N[C@@H](CCCNC(=N)N)C(=O)N[C@@H](CC(=O)O)C(=O)N[C@@H](CO)C(=O)N[C@@H](CC(=O)O)C(=O)N3)NC(=O)[C@H]([C@@H](C)CC)NC2=O | > 100000 | 9 | > 50000 | > 50000 | – | – | –
CC[C@H](C)[C@@H]1NC(=O)[C@H](CCCNC(=N)N)NC(=O)[C@H](Cc2ccccc2)NC(=O)[C@H](NC(=O)[C@H](CCC(N)=O)NC(=O)CNC(=O)CN)CSSC[C@H]2NC(=O)[C@H](C)NC(=O)CNC(=O)[C@@H]3CCCN3C(=O)[C@@H]3CSSC[C@H](C(=O)NCC(=O)N[C@@H](CO)C(=O)NCC(=O)N[C@@H](CO)C(=O)N[C@@H](CC(=O)O)C(=O)O)NC(=O)[C@H](Cc4ccc(O)cc4)NC(=O)CNC(=O)[C@H](CC(N)=O)NC(=O)CNC(=O)[C@H](CCCNC(=N)N)NC(=O)[C@H](CSSC[C@H](NC(=O)[C@H](CCCCN)NC(=O)[C@H](CCCCN)NC(=O)[C@H](CC(C)C)NC1=O)C(=O)N[C@@H](CCCNC(=N)N)C(=O)N[C@@H](CCCNC(=N)N)C(=O)N[C@@H](CC(=O)O)C(=O)N[C@@H](CO)C(=O)N[C@@H](CC(=O)O)C(=O)N3)NC(=O)[C@H]([C@@H](C)CC)NC2=O | 460 | – | > 10000 | > 10000 | 4 | – | –
CC(=O)N[C@@H](CCC(N)=O)C(=O)N[C@@H](CCCNC(=N)N)C(=O)N[C@@H](CO)C(=O)N[C@H](C=O)CCCNC(=N)N (Ac-QRSR-aldehyde) | 360 | – | – | – | – | 6 | 2390
